The test system of one assay is LNCaP cells. The experiment in a line: LNCaP cell viability assay (CellTiter-Glo). Type of assay: cell-based. As to conditions: Homo sapiens, 72 h; LNCaP prostate cancer cell viability inhibition, 3 days, CellTiter-Glo (Table 3). An outline of the steps:
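LNCaP cells, 5000/well, exposed to compounds in 12-point 3-fold serial dilution (top 10 μM) for 3 days. Viability by CellTiter-Glo luminescence, normalized to untreated cells; IC50 by least-squares nonlinear regression.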

The target of a further assay is P300 (Homo sapiens, UniProt Q09472). The experiment in a line: Immunoblotting of P300 protein levels in LNCaP or 22RV1 cells. Type of assay: cell-based. Details: LNCaP or 22RV1 cells that express CBP/P300 proteins were treated with GNE-781 or the bivalent compounds; endogenous in cells; host or cells: LNCaP (clone FGC) or 22RV1 cells. To be noted: percentage of inhibition of p300 at 10 nM (Table 3); read-out: Degradation (10 nM). An outline of the steps:
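LNCaP or 22RV1 cells treated with compounds for indicated hours, DMSO as negative control. RIPA lysates resolved by SDS-PAGE and immunoblotted for P300 or CBP, tubulin or vinculin as loading control; chemiluminescent bands quantitated.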
On the technique in general: In western blotting, separated proteins are transferred to a membrane and probed.

Molecules are shown by their SMILES.

Chain of P300 (Q09472 whole entry): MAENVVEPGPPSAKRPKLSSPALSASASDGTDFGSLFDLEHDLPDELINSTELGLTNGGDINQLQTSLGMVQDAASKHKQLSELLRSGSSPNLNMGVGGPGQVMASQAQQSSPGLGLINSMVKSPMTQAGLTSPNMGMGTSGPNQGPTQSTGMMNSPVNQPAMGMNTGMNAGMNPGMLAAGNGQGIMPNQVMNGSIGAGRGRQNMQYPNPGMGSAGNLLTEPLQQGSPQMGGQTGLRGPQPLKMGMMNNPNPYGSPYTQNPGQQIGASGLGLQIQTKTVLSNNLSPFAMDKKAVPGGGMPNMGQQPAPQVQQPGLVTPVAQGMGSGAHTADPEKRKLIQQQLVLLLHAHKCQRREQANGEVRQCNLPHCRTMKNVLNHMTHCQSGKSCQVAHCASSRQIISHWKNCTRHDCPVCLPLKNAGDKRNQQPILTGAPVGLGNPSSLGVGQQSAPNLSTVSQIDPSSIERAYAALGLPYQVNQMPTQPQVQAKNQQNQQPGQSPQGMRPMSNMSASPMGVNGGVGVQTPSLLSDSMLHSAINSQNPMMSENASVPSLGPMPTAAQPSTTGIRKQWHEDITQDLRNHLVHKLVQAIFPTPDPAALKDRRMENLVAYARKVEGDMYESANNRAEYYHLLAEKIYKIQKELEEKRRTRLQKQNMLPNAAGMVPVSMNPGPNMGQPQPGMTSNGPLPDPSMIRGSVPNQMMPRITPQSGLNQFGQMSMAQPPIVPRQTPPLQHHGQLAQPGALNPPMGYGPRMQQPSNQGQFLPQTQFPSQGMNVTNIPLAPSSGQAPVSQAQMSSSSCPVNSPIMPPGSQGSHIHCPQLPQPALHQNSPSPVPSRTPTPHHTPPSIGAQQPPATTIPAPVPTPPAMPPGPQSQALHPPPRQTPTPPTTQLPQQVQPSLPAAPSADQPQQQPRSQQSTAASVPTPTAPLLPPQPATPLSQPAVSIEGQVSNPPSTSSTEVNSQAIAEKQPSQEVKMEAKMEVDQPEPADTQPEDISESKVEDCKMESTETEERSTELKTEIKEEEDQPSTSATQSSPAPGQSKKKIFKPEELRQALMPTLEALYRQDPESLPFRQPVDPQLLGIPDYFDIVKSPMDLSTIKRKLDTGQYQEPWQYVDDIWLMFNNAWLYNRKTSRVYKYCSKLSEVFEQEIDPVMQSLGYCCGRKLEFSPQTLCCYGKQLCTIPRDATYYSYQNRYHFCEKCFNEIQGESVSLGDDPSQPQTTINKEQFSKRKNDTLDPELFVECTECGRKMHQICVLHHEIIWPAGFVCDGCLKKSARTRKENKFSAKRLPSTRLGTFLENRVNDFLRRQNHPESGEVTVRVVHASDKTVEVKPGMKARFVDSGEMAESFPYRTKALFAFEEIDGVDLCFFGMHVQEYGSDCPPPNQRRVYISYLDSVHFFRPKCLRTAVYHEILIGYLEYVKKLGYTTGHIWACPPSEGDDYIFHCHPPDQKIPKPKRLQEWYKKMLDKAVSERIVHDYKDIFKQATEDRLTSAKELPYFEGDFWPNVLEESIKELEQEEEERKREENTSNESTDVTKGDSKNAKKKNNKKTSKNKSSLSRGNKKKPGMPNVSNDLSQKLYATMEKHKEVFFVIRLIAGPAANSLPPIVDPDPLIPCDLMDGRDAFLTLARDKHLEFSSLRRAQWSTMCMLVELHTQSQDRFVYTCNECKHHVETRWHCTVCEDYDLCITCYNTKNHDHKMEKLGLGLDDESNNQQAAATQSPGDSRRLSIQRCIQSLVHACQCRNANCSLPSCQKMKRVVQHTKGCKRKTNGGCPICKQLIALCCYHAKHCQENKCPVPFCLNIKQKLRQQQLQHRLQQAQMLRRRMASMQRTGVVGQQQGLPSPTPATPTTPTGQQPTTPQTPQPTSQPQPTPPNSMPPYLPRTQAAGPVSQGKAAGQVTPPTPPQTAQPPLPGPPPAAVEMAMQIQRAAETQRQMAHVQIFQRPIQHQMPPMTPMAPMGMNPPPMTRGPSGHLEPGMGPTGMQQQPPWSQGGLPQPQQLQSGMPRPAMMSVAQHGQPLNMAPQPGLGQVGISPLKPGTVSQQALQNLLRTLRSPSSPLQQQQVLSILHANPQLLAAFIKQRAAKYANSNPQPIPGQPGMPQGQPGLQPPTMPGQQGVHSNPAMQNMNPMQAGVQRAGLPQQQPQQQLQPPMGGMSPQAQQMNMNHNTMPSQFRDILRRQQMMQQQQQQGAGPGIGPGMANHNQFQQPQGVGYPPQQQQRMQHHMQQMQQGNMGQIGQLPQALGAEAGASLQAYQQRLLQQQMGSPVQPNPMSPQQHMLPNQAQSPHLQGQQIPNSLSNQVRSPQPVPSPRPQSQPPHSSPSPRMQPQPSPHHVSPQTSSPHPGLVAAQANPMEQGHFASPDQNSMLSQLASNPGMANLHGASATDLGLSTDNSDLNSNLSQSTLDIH

One may read the IC50 as the concentration needed to halve the response being measured. As to `CNC(=O)N1CCc2c(c(N3CCCc4cc(-c5cnn(CC(=O)NCCCC(=O)N[C@H](C(=O)N6C[C@H](O)C[C@H]6C(=O)NCc6ccc(-c7scnc7C)cc6)C(C)(C)C)c5)c(C(F)F)cc43)nn2C2CCOCC2)C1` [P-079, 3-(7-(Difluoromethyl)-6-(1-(2-((4-(((S)-1-((2S,4R)-4-hydroxy-2-((4-(4-methylthiazol-5-yl)benzyl)carbamoyl)pyrrolidin-1-yl)-3,3-dimethyl-1-oxobutan-2-yl)amino)-4-oxobutyl)amino)-2-oxoethyl)-1H-pyrazol-4-yl)-3,4-dihydroquinolin-1(2H)-yl)-N-methyl-1-(tetrahydro-2H-pyran-4-yl)-1,4,6,7-tetrahydro-5H-pyrazolo[4,3-c]pyridine-5-carboxamide], the IC50 with LNCaP cells was more than 10000 nM. For the same compound, the inhibition at 0.01 µM on P300 is less than 20%.
As for `CNC(=O)N1CCc2c(c(N3CCCc4cc(-c5cnn(CC(=O)NCCCCCCC(=O)N[C@H](C(=O)N6C[C@H](O)C[C@H]6C(=O)NCc6ccc(-c7scnc7C)cc6)C(C)(C)C)c5)c(C(F)F)cc43)nn2C2CCOCC2)C1` [P-080, 3-(7-(Difluoromethyl)-6-(1-(2-((7-(((S)-1-((2S,4R)-4-hydroxy-2-((4-(4-methylthiazol-5-yl)benzyl)carbamoyl)pyrrolidin-1-yl)-3,3-dimethyl-1-oxobutan-2-yl)amino)-7-oxoheptyl)amino)-2-oxoethyl)-1H-pyrazol-4-yl)-3,4-dihydroquinolin-1(2H)-yl)-N-methyl-1-(tetrahydro-2H-pyran-4-yl)-1,4,6,7-tetrahydro-5H-pyrazolo[4,3-c]pyridine-5-carboxamide], the IC50 in the assay with LNCaP cells is more than 10000 nM. The inhibition at 0.01 µM on P300 was less than 20%.
The like results for `CNC(=O)N1CCc2c(c(N3CCCc4cc(-c5cnn(CC(=O)NCCCCCCCCC(=O)N[C@H](C(=O)N6C[C@H](O)C[C@H]6C(=O)NCc6ccc(-c7scnc7C)cc6)C(C)(C)C)c5)c(C(F)F)cc43)nn2C2CCOCC2)C1` [P-081, 3-(7-(Difluoromethyl)-6-(1-(2-((9-(((S)-1-((2S,4R)-4-hydroxy-2-((4-(4-methylthiazol-5-yl)benzyl)carbamoyl)pyrrolidin-1-yl)-3,3-dimethyl-1-oxobutan-2-yl)amino)-9-oxononyl)amino)-2-oxoethyl)-1H-pyrazol-4-yl)-3,4-dihydroquinolin-1(2H)-yl)-N-methyl-1-(tetrahydro-2H-pyran-4-yl)-1,4,6,7-tetrahydro-5H-pyrazolo[4,3-c]pyridine-5-carboxamide] were, in that order, 469 nM and less than 20%.
As to `CNC(=O)N1CCc2c(c(N3CCCc4cc(-c5cnn(C)c5)c(C(F)F)cc43)nn2C2CCN(C(=O)CCCCCOc3cccc4c3C(=O)N(C3CCC(=O)NC3=O)C4=O)CC2)C1` (stereo not shown) [P-084, 3-(7-(Difluoromethyl)-6-(1-methyl-1H-pyrazol-4-yl)-3,4-dihydroquinolin-1(2H)-yl)-1-(1-(6-((2-(2,6-dioxopiperidin-3-yl)-1,3-dioxoisoindolin-4-yl)oxy)hexanoyl)piperidin-4-yl)-N-methyl-1,4,6,7-tetrahydro-5H-pyrazolo[4,3-c]pyridine-5-carboxamide], it took 13.1 nM to reach half-maximal inhibition in the assay with LNCaP cells (IC50). Besides, the inhibition at 0.01 µM on P300 is 50 to 80%.
The like results for `CNC(=O)N1CCc2c(c(N3CCCc4cc(-c5cnn(C)c5)c(C(F)F)cc43)nn2C2CCN(C(=O)CCCCCCc3cccc4c3C(=O)N(C3CCC(=O)NC3=O)C4=O)CC2)C1` (stereo not shown) [P-085, 3-(7-(difluoromethyl)-6-(1-methyl-1H-pyrazol-4-yl)-3,4-dihydroquinolin-1(2H)-yl)-1-(1-(7-(2-(2,6-dioxopiperidin-3-yl)-1,3-dioxoisoindolin-4-yl)heptanoyl)piperidin-4-yl)-N-methyl-1,4,6,7-tetrahydro-5H-pyrazolo[4,3-c]pyridine-5-carboxamide] were, in that order, 3.8 nM and more than 80%.
For `CNC(=O)N1CCc2c(c(N3CCCc4cc(-c5cnn(C)c5)c(C(F)F)cc43)nn2C2CCN(C(=O)CCCCCCc3cccc4c3CN(C3CCC(=O)NC3=O)C4=O)CC2)C1` (stereo not shown) [P-086, 3-(7-(Difluoromethyl)-6-(1-methyl-1H-pyrazol-4-yl)-3,4-dihydroquinolin-1(2H)-yl)-1-(1-(7-(2-(2,6-dioxopiperidin-3-yl)-1-oxoisoindolin-4-yl)heptanoyl)piperidin-4-yl)-N-methyl-1,4,6,7-tetrahydro-5H-pyrazolo[4,3-c]pyridine-5-carboxamide], in the assay with LNCaP cells, the IC50 was 21.1 nM. In addition, the inhibition at 0.01 µM at P300 is 50 to 80%.
The matching figures for `CNC(=O)N1CCc2c(c(N3CCCc4cc(-c5cnn(C)c5)c(C(F)F)cc43)nn2C2CCN(C(=O)CCCCCCc3cccc4c3C(=O)N(C3CCC(=O)NC3=O)C4)CC2)C1` (stereo not shown) [P-087, 3-(7-(Difluoromethyl)-6-(1-methyl-1H-pyrazol-4-yl)-3,4-dihydroquinolin-1(2H)-yl)-1-(1-(7-(2-(2,6-dioxopiperidin-3-yl)-3-oxoisoindolin-4-yl)heptanoyl)piperidin-4-yl)-N-methyl-1,4,6,7-tetrahydro-5H-pyrazolo[4,3-c]pyridine-5-carboxamide]: 12.6 nM and 20 to 50%.
The matching figures for `CNC(=O)N1CCc2c(c(N3CCCc4cc(-c5cnn(C)c5)c(C(F)F)cc43)nn2C2CCN(C(=O)CCCCCOc3cccc4c3CN(C3CCC(=O)NC3=O)C4=O)CC2)C1` (stereo not shown) [P-088, 3-(7-(difluoromethyl)-6-(1-methyl-1H-pyrazol-4-yl)-3,4-dihydroquinolin-1(2H)-yl)-1-(1-(6-((2-(2,6-dioxopiperidin-3-yl)-1-oxoisoindolin-4-yl)oxy)hexanoyl)piperidin-4-yl)-N-methyl-1,4,6,7-tetrahydro-5H-pyrazolo[4,3-c]pyridine-5-carboxamide]: 5.5 nM and more than 80%.
As to `CNC(=O)N1CCc2c(c(N3CCCc4cc(-c5cnn(C)c5)c(C(F)F)cc43)nn2C2CCN(C(=O)CCCCCOc3cccc4c3C(=O)N(C3CCC(=O)NC3=O)C4)CC2)C1` (stereo not shown) [P-089, 3-(7-(Difluoromethyl)-6-(1-methyl-1H-pyrazol-4-yl)-3,4-dihydroquinolin-1(2H)-yl)-1-(1-(6-((2-(2,6-dioxopiperidin-3-yl)-3-oxoisoindolin-4-yl)oxy)hexanoyl)piperidin-4-yl)-N-methyl-1,4,6,7-tetrahydro-5H-pyrazolo[4,3-c]pyridine-5-carboxamide], the midpoint of inhibition in the assay with LNCaP cells, the IC50, lay at 78.5 nM. For the same compound, at P300, the inhibition at 0.01 µM was less than 20%.
In turn, `CNC(=O)N1CCc2c(c(N3CCCc4cc(-c5cnn(C)c5)c(C(F)F)cc43)nn2C2CCN(CCCCCCNc3cccc4c3C(=O)N(C3CCC(=O)NC3=O)C4=O)CC2)C1` (stereo not shown) [P-090, 3-(7-(difluoromethyl)-6-(1-methyl-1H-pyrazol-4-yl)-3,4-dihydroquinolin-1(2H)-yl)-1-(1-(6-((2-(2,6-dioxopiperidin-3-yl)-1,3-dioxoisoindolin-4-yl)amino)hexyl)piperidin-4-yl)-N-methyl-1,4,6,7-tetrahydro-5H-pyrazolo[4,3-c]pyridine-5-carboxamide] showed an IC50 with LNCaP cells of 1 nM. The inhibition at 0.01 µM on P300 is more than 80%.
Compound `CNC(=O)N1CCc2c(c(N3CCCc4cc(-c5cnn(C)c5)c(C(F)F)cc43)nn2C2CCN(CCCCCCOc3cccc4c3C(=O)N(C3CCC(=O)NC3=O)C4=O)CC2)C1` (stereo not shown) [P-091, 3-(7-(difluoromethyl)-6-(1-methyl-1H-pyrazol-4-yl)-3,4-dihydroquinolin-1(2H)-yl)-1-(1-(6-((2-(2,6-dioxopiperidin-3-yl)-1,3-dioxoisoindolin-4-yl)oxy)hexyl)piperidin-4-yl)-N-methyl-1,4,6,7-tetrahydro-5H-pyrazolo[4,3-c]pyridine-5-carboxamide] returned an IC50 in the assay on LNCaP cells of 2.1 nM. Further, on P300, the inhibition at 0.01 µM was more than 80%.

(Values after patent publication US20230073777A1, “CYCLIC-AMP RESPONSE ELEMENT BINDING PROTEIN (CBP) AND/OR ADENOVIRAL E1A BINDING PROTEIN OF 300 KDA (P300) DEGRADATION COMPOUNDS AND METHODS OF USE” (CULLGEN (SHANGHAI), INC., priority 2019, published 2023).)
